Reference: patent US8071353B2, “Genetic remodeling in Bifidobacterium” (Nestec S.A., priority 2007, dated 2011)
≈ marks a conversion by molar mass, not a printed value.

Legend:
[1] = test system: B. animalis subsp. lactis wild-type strain NCC 2818; assay: E-TEST (AB BIODISK) tetracycline MIC determination, wild-type strain; format: cell-based, Bifidobacterium animalis subsp. lactis; conditions: Bifidobacterium animalis, strain NCC 2818 (wild-type, operable tetW)
Excerpt: (§1) In certain embodiments, the wild-type cell is resistant to a higher concentration of the antibiotic than the cell of the invention, i.e. the cell with the deleted gene. Sensitivity of a microbial cell to a particular antibiotic may be measured in any of a variety of manners. One convenient means for measuring antibiotic sensitivity to use disk diffusion assays, for example the E-test (commercially produced by AB BIODISK). The E-test system uses a predefined gradient of antibiotic concentrations on a plastic strip and can be used to determine the exact Minimum Inhibitory Concentration (MIC) of an antibiotic for a particular organism.
(§2) In certain embodiments, the wild-type cell is resistant to a higher concentration of the antibiotic than the cell that results from the methods provided. Disk diffusion assays and related sensitivity tests such as the E-test (AB BIODISK) are preferred ways of measuring the sensitivity of a cell to an antibiotic. The Minimum Inhibitory Concentration (MIC), however determined, of an antibiotic for a particular organism is a convenient way to compare relative sensitivities.
(§3) A commercial E-TEST (AB BIODISK) was used to determine the MIC for tetracycline of each strain.

[2] = test system: B. animalis subsp. lactis strain NCC 9034 (tetW deleted); assay: E-TEST (AB BIODISK) tetracycline MIC determination, tetW deletion strain; format: cell-based, Bifidobacterium animalis subsp. lactis
Excerpt: as §1, §2, §3

[3] = test system: Bifidobacterium animalis subsp. lactis strain NCC 362 (wild-type); assay: E-TEST tetracycline MIC determination, FIG. 3 legend wild-type strain; format: cell-based; conditions: FIG. 3 left panel, read-out: Resistance to tetracycline (MIC)
Excerpt: as §1, §3

Question: `CN(C)[C@@H]1C(O)=C(C(N)=O)C(=O)[C@@]2(O)C(O)=C3C(=O)c4c(O)cccc4[C@@](C)(O)[C@H]3C[C@@H]12` [tetracycline] was tested. Which MIC [1] did it give?
Answer: 16 µg/mL (≈ 36 µM)

Question: And the MIC ([2]; Bifidobacterium animalis, read-out: MIC for tetracycline)?
Answer: ~0.3 µg/mL (≈ 0.675 µM)

Question: And the “times more sensitive to tetracycline than parent wild-type strain NCC 2818” value ([2]; NCC 9034 versus NCC 2818, ratio of E-TEST MICs)?
Answer: about 50 times

Question: What about the MIC [3] of the same molecule?
Answer: ~16 µg/mL (≈ 36 µM)
